The record followed here is US5776940A, “Phenylxanthine derivatives” (Glaxo Wellcome Inc., priority 1994, dated 1998).

SMILES strings stand for the structures.

Assay [1] addresses T1, arachidonate 5-lipoxygenase (Rattus norvegicus, UniProt P12527).
T1 construct: endogenous in cells; host or cells: pleural exudate cells of male Harlan Sprague-Dawley rats, 3 hr after intrapleural carrageenan
T1 sequence (P12527 1-673): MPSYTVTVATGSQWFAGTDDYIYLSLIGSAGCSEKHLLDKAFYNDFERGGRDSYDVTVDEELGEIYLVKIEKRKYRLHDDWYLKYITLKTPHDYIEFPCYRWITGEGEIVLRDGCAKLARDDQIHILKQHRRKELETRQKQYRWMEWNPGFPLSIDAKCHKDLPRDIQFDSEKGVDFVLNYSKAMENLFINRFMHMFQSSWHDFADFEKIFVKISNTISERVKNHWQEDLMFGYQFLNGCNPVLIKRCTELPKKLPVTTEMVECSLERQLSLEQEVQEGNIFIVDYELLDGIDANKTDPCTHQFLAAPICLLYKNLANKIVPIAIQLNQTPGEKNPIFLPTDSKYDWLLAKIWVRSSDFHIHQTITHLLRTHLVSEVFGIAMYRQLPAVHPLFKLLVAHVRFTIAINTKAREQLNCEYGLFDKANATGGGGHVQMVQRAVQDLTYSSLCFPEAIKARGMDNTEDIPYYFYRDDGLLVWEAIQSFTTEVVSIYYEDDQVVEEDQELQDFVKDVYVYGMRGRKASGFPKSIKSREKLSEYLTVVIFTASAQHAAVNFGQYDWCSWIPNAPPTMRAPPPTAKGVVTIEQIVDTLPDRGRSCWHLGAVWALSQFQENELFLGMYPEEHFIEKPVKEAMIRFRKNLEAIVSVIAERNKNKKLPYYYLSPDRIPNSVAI
The assay is described as follows: Arachidonate metabolism: 5-lipoxygenase inhibition in rat pleural exudate cells. The format is cell-based, rat (Harlan Sprague-Dawley male). To be noted: ionophore A23187, 10 μM arachidonate, 37° C., read-out: Enzymes IC50 5-LO. As to the method: Compounds of the invention were assayed for inhibiting activity in arachidonate metabolism and PAF synthesis as follows.
A) Arachidonate Metabolism
Arachidonate cyclooxygenase, 5-lipoxygenase, and thromboxane synthetase were assayed as described in White et al, Prostaglandins, Leukotrienes and Medicine, 1985; 20: p 1-9. Pleural exudate cells were harvested from Harlan Sprague-Dawley male rats (150±20 g) 3 hr after intrapleural injection of 0.5 mg carrageenan. Cell counts were obtained from pooled exudates, which were then centrifuged at 200 g (10 min, 4° C.) and resuspended at 15 million cells/ml in 0.13M NaCl, 15 mM Tris-Cl, 5 mM glucose, pH 7.4. Portions of this cell suspension (3 million cells per assay) were preincubated with and without compound being tested for 5 min at 37° C. in 50 mM Tris-Cl, 1 mM CaCl2, pH 7.4. Ionophore A23187 (3 μM) and [^14 C]arachidonate (to give 10 μM; 55 Ci/mol) were then added in a total assay volume of 400 μl, and incubation was continued for 2 min at 37° C. Blank assays were performed using sonicated cells with 0.1 mM 3-amino-1-m-trifluoromethylphenyl pyrazol-2-ine, an inhibitor of cyclooxygenase and lipoxygenase pathways. After incubation, reaction mixtures were acidified with 20 μl of 2N HCl and extracted with 4 ml diethyl ether. Ether extracts were dried under nitrogen, resuspended in ethyl acetate, and chromatographed on Whatman LK5D silica gel G plates, using ethyl acetate/isooctane/acetic acid/water (9/5/2/10; vols; top layer after 5 min shaking). Thin layer plates were exposed to Kodak SB-5 X-ray film to produce autoradiogran. [^14 C]DPM in products were obtained by scraping appropriate regions of TLC plates and counting in a scintillation spectrometer. Effects on the 5-lipoxygenase pathway were estimated by counting 5-HETE and 5,12-diHETE (LTB4). Cyclooxygenase and thromboxane synthetase inhibition were estimated by counting thromboxane B2 and prostaglandin E2 or F2 α. Selective thromboxane inhibitors will decrease thromboxane B2 and increase PGE2 and PGF2 α. Cyclooxygenase inhibitors will inhibit the formation of all three products.

Assay [2] has as its system antigen-induced airway eosinophilia. The assay is described as follows: Inhibition of antigen-induced airway eosinophilia in the guinea pig. The format is in vivo, guinea pig (male Hartley). The settings on record: 24 h after antigen challenge. As to the method:
2) Compounds of the invention were assayed for inhibition of Antigen-Induced airway eosinophilia as follows:
Male Hartley guinea pigs [Crl:(HA)Br, Charles River] weighing 200-300 g were sensitized to ovalbumin (OA) by intraperitioneal (i.p.) injections (in 1 ml 0.9% saline) of 20 mg followed by 1 mg 2 or 3 days later. After four to twelve weeks, the animals were treated with the antihistamine, pyrilamine (1 mg/kg i.p), 1 hour prior to exposure (17.8 l chamber) and for 10 min to an aerosol of OA (0.5% w/v solution in 0.9% sterile saline) generated from a jet nebulizer (Devilbiss Model 40; flow rate=8.51/min). […] Twenty-four hours after antigen challenge, each animal was anesthetized with sodium pentobarbital (55-75 mg/kg i.p.), the trachea cannulated and the lungs lavaged with 4×10 ml aliquots of Hanks' Balanced Salt Solution warmed to 37° C. The aliquots were pooled in 40 ml polycarbonate centrifuge tubes, centrifuged (200 g for 10 min at 4° C.) and the cell pellet resuspended in HEPES buffered solution (2 ml). Fifty μl of the suspension were added to 10 ml of Isoton Diluent (Fisher Scientific) containing three drops of lysing agent and the cells counted with a Coulter Counter (Model ZB1). Four μl of the cell suspension were spread on a 3×1 inch glass microscope slide, allowed to dry and the cells stained with DIFF-QUIK™ (Fisher Scientific). Two slides were prepared for each animal. Differential cell counts were made (100× magnification) from a minimum of four fields on 100 cells per slide (total cells counted per animal=200), using standard morphological criteria to classic cells into eosinophils, neutrophils, lymphocytes and macrophages. The activity of the test compound was calculated by comparing the mean proportions of eosinophils in the lavage fluid of compound-treated animals with controls (vehicle-treated animals) and expressing as percent inhibition.

What is called IC50 is the concentration needed to halve the response being measured. For the compound `O=C(O)/C=C/c1ccc(-c2nc3c(=O)n(CC4CCCCC4)c(=O)n(CC4CCCCC4)c3[nH]2)cc1` [Example 1, (E)-4-[1,3 Bis(cyclohexylmethyl)-1,2,3,6-tetrahydro-2,6-dioxo-9H-purin-8-yl]cinnamic Acid], the IC50 in assay [1] turned out to be 300 nM. In addition, the “Inhibition of Airway Eosinophilia (% inhibition)” value (“Inhibition … (% inhibition)” for short) in assay [2] (dose 5 mg/kg ip) was determined as 50%.
Regarding `O=C(O)/C=C/c1ccc(-c2nc3c(=O)n(CC4CCCC4)c(=O)n(CC4CCCC4)c3[nH]2)cc1` [Example 4, (E)-4-[1,3 Bis(cyclopentylmethyl)-1,2,3,6-tetrahydro-2,6-dioxo-9H-purin-8-yl]cinnamicAcid], in assay [1], the IC50 is 6000 nM. Moreover, in assay [2] (dose 10 mg/kg ip), the “Inhibition … (% inhibition)” value turned out to be 46%.
As to `O=C(O)/C=C/c1ccc(-c2nc3c(=O)n(CC4CCCCCC4)c(=O)n(CC4CCCCCC4)c3[nH]2)cc1` [Example 7, (E)-4-[1,3 Bis(cycloheptylmethyl)-1,2,3,6-tetrahydro-2,6-dioxo-9H-purin-8-yl]cinnamicAcid], the IC50 in assay [1] stood at 1500 nM. Moreover, in assay [2] (dose 6.8 mg/kg ip), the “Inhibition … (% inhibition)” value is recorded as 50%.
